The values that follow come from US9394297B2, “Amides as pim inhibitors” (AMGEN INC., priority 2012, dated 2016).

The structures appear in SMILES notation. Read-outs that look alike come from different tables or passages of the source.

For assay [1], the system named is KMS-12-BM myeloma cell line. In words: Pim KMS-12 cell assay (phospho-BAD S112 / total BAD, MSD). The note with it: Homo sapiens, KMS-12-BM, read-out: KMS-12-BM IC50 IP, KMS-12-BM cells, phospho-BAD (S112) vs total BAD, 1 hour 50 min with compound.
For the next assay, the system named is KMS-12-BM cell lines. In words: KMS12 #2 flow cytometry assay (phospho-BAD Ser112). It is filed as cell-based. The note with it: Homo sapiens, 110 min, read-out: KMS-12-Flow IC50 IP.
In a further assay the target is Pim-1 (Homo sapiens (Human), UniProt P11309). In words: Pim-Mn enzyme assay (HTRF, 384-well), Pim-1. It is filed as biochemical. The note with it: read-out: Pim-1-Mn IC50 IP.
Sequence of Pim-1 (P11309 whole entry): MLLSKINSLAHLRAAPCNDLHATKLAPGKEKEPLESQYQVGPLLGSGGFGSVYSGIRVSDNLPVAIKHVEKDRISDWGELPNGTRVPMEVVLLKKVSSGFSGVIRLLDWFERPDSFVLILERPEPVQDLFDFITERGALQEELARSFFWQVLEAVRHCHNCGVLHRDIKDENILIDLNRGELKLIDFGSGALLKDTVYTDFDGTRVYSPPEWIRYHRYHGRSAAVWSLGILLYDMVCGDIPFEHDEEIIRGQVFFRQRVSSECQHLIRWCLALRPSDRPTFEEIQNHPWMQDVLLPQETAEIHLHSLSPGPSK
The target of another assay is Pim-2 (Homo sapiens (Human), UniProt Q9P1W9). Put plainly: Pim-Mn enzyme assay (HTRF, 384-well), Pim-2. The note with it: Pim-2 enzyme 0.5 pM, ATP 1.5 μM, BAD (S112) 0.5 μM, HTRF, 22-point curve; read-out: Pim-2-Mn IC50 IP. Format: biochemical.
Sequence of Pim-2 (Q9P1W9 whole entry): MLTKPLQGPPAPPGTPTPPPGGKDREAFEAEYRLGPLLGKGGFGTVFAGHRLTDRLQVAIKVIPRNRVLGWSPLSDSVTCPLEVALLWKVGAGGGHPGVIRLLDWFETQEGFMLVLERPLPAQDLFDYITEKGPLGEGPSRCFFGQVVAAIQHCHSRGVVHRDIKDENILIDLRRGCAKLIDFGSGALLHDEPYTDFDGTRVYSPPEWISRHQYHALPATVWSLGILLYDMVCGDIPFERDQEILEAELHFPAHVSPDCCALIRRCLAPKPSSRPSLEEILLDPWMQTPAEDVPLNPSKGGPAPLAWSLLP
[2] abbreviates: KMS-12-BM cells, pBAD Ser112 by flow cytometry, 110 min with compound.
[3] abbreviates: Pim-1 enzyme 5 pM, ATP 1.5 μM, BAD (S112) 0.5 μM, HTRF, 22-point curve.

With `Nc1nc2cccc(-c3cc4c([nH]3)CCNC4=O)c2nc1Oc1ccccc1` [Example 36, 2-(2-amino-3-phenoxyquinoxalin-5-yl)-6,7-dihydro-1H-pyrrolo[3,2-c]pyridin-4(5H)-one], the IC50 (commonly the concentration that inhibits the measured activity by half) in assay [1] was 209 nM.
In the case of `Cc1nc2cccc(-c3cc4c([nH]3)CCNC4=O)c2nc1NC1CCCOC1` (racemic) [Example 198, rac-2-(2-methyl-3-((tetrahydro-2H-pyran-3-yl)amino)quinoxalin-5-yl)-6,7-dihydro-1H-pyrrolo[3,2-c]pyridin-4(5H)-one], in assay [1], the IC50 is 307 nM.
Still for that read-out and setting: the figure for `O=C1NCCc2[nH]c(-c3cccc4ccc(N[C@H]5CC[C@H](O)CC5)nc34)cc21` [Example 82, 2-(2-(((1R,4R)-4-hydroxycyclohexyl)amino)quinolin-8-yl)-6,7-dihydro-1H-pyrrolo[3,2-c]pyridin-4(5H)-one] is 4620 nM.
On the same count and under the same terms, the figure for `Cc1nc2cccc(-c3cc4c([nH]3)CCNC4=O)c2nc1NC(C)(C)C(N)=O` [Example 62, 2-methyl-N-2-(3-methyl-8-(4-oxo-4,5,6,7-tetrahydro-1H-pyrrolo[3,2-c]pyridin-2-yl)-2-quinoxalinyl)alaninamide] is 2610 nM.
Take `O=C1NCCc2[nH]c(-c3cccc4ccc(Nc5c(F)cccc5F)nc34)cc21` [Example 175, 2-(2-((2,6-difluorophenyl)amino)quinolin-8-yl)-6,7-dihydro-1H-pyrrolo[3,2-c]pyridin-4(5H)-one]: the IC50 in assay [1] amounted to 1510 nM.
In the case of `Cc1nc2cccc(-c3cc4c([nH]3)CCNC4=O)c2nc1NC(C)(C)CNCCS(C)(=O)=O` [Example 342, 2-(3-((1,1-dimethyl-2-((2-(methylsulfonyl)ethyl)amino)ethyl)amino)-2-methyl-5-quinoxalinyl)-1,5,6,7-tetrahydro-4H-pyrrolo[3,2-c]pyridin-4-one], the IC50 was 11500 nM in the assay on KMS-12-BM cell lines (setting [2]), 28.1 nM on Pim-1 (setting [3]) and 20.4 nM on Pim-2.
In the case of `Cc1nc2cccc(-c3cc4c([nH]3)CCNC4=O)c2nc1-c1nccn1C` [Example 432, 2-(2-Methyl-3-(1-methyl-1H-imidazol-2-yl)quinoxalin-5-yl)-6,7-dihydro-1H-pyrrolo[3,2-c]pyridin-4(5H)-one], the IC50 is > 40000 nM in the assay with KMS-12-BM cell lines (setting [2]), 413 nM at Pim-1 (setting [3]) and 244 nM at Pim-2.
On to `Cc1nc2ccc(F)c(-c3cc4c([nH]3)C3(CC3)NC4=O)c2nc1NC(C)(C)C` [Example 295, 2′-(3-(tert-butylamino)-6-fluoro-2-methylquinoxalin-5-yl)-1′H-spiro[cyclopropane-1,6′-pyrrolo[3,4-b]pyrrol]-4′(5′H)-one], for which the half-inhibitory concentration (IC50) with KMS-12-BM cell lines (setting [2]) was found to be 41 nM; on Pim-1, 0.562 nM; at Pim-2, 0.52 nM.
As for `Cc1nc2ccc(F)c(-c3cc4c([nH]3)CCNC4=O)c2nc1NC1(C)CC1` [Example 369, 2-(6-fluoro-2-methyl-3-((1-methylcyclopropyl)amino)quinoxalin-5-yl)-6,7-dihydro-1H-pyrrolo[3,2-c]pyridin-4(5H)-one 2,2,2-trifluoroacetate], the half-inhibitory concentration (IC50) was 11.5 nM in the assay with KMS-12-BM cell lines (setting [2]), 0.184 nM at Pim-1 (setting [3]) and 0.162 nM on Pim-2.
`Cc1nc2cccc(-c3cc4c([nH]3)CCNC4=O)c2nc1NC(C)c1ccncn1` (centres unmarked) [Example 323, 2-(2-methyl-3-((1-(pyrimidin-4-yl)ethyl)amino)quinoxalin-5-yl)-6,7-dihydro-1H-pyrrolo[3,2-c]pyridin-4(5H)-one]: the results for the half-inhibitory concentration (IC50) in the assay on KMS-12-BM cell lines (setting [2]), at Pim-1 (setting [3]) and on Pim-2 were > 20000 nM, 83.8 nM and 62.7 nM, respectively.
On to `Cc1nc2cccc(-c3cc4c([nH]3)CNC4=O)c2nc1NCC(F)(F)F` [Example 301, 2-(2-methyl-3-((2,2,2-trifluoroethyl)amino)-5-quinoxalinyl)-5,6-dihydropyrrolo[3,4-b]pyrrol-4(1H)-one], for which the IC50 in the assay with KMS-12-BM cell lines (setting [2]) came out at 341 nM; at Pim-1 (setting [3]) it was 1.25 nM; at Pim-2, 1.91 nM.
The matching figures for `Cc1nc2cccc(-c3cc4c(n3C(=O)OC(C)(C)C)CCNC4=O)c2nc1NC(C)(C)C` [Example 290, tert-butyl 2-(3-(tert-butylamino)-2-methylquinoxalin-5-yl)-4-oxo-4,5,6,7-tetrahydro-1H-pyrrolo[3,2-c]pyridine-1-carboxylate]: 4190 nM, 39.7 nM and 35.8 nM.
`Cc1nc2ccc(F)c(-c3cc4c([nH]3)C3(CC3)NC4=O)c2nc1NC1CC1` [Example 283, 2′-(3-(cyclopropylamino)-6-fluoro-2-methylquinoxalin-5-yl)-1′H-spiro[cyclopropane-1,6′-pyrrolo[3,4-b]pyrrol]-4′(5′H)-one]: the values for the IC50 in the assay on KMS-12-BM cell lines (setting [2]), at Pim-1 (setting [3]) and at Pim-2 were 75.2 nM, 0.303 nM and 0.278 nM, respectively.
`COCCn1c(NC(C)(C)C)nc2c(-c3cc4c([nH]3)[C@@H](C)NC4=O)cccc2c1=O` [Example 459, 2-(tert-butylamino)-3-(2-methoxyethyl)-8-((6R)-6-methyl-4-oxo-1,4,5,6-tetrahydropyrrolo[3,4-b]pyrrol-2-yl)-4(3H)-quinazolinone]: the values for the IC50 in the assay with KMS-12-BM cell lines (setting [2]), on Pim-1 (setting [3]) and at Pim-2 were 76 nM, 0.199 nM and 0.193 nM, respectively.
The like results for `COCCn1c(NC(C)(C)C)nc2c(-c3cc4c([nH]3)CNC4=O)cccc2c1=O` [Example 458, 2-(tert-butylamino)-3-(2-methoxyethyl)-8-(4-oxo-1,4,5,6-tetrahydropyrrolo[3,4-b]pyrrol-2-yl)-4(3H)-quinazolinone] were, in that order, 54.6 nM, 0.325 nM and 0.218 nM.
As for `Cc1nc2cccc(-c3cc4c([nH]3)[C@@H](C)NC4=O)c2nc1O[C@@H](C)C(F)(F)F` [Example 452, (6R)-6-methyl-2-(2-methyl-3-((1S)-2,2,2-trifluoro-1-methylethoxy)-5-quinoxalinyl)-5,6-dihydropyrrolo[3,4-b]pyrrol-4(1H)-one], the half-maximal inhibitory concentration (IC50) was 3190 nM with KMS-12-BM cell lines (setting [2]), 21.6 nM on Pim-1 (setting [3]) and 32.5 nM on Pim-2.
The matching figures for `CNc1nc2cccc(-c3cc4c([nH]3)CCNC4=O)c2nc1NC(C)(C)C` [Example 344, 2-(3-(tert-butylamino)-2-(methylamino)-5-quinoxalinyl)-1,5,6,7-tetrahydro-4H-pyrrolo[3,2-c]pyridin-4-one]: 202 nM, 1.19 nM and 5.61 nM.
The matching figures for `Cc1nc2cccc(-c3cc4c([nH]3)CCCC4=O)c2nc1NC(C)(C)C` [Example 303, 2-(3-(tert-butylamino)-2-methylquinoxalin-5-yl)-6,7-dihydro-1H-indol-4(5H)-one]: 572 nM, 0.839 nM and 1.47 nM.
Take `Cc1nc2cccc(-c3cc4c([nH]3)CCNC4=O)c2nc1NC(C)(C)CN1CCOCC1` [Example 457, 2-(3-((1,1-dimethyl-2-(4-morpholinyl)ethyl)amino)-2-methyl-5-quinoxalinyl)-1,5,6,7-tetrahydro-4H-pyrrolo[3,2-c]pyridin-4-one]: the 50% inhibitory concentration (IC50) in the assay with KMS-12-BM cell lines (setting [2]) came out at 3490 nM; on Pim-1 (setting [3]), 35.7 nM; on Pim-2, 134 nM.
The like results for `Cc1nc2ccc(F)c(-c3cc4c([nH]3)CCNC4=O)c2nc1NC(C)(C)CO` [Example 370, 2-(6-fluoro-3-((1-hydroxy-2-methylpropan-2-yl)amino)-2-methylquinoxalin-5-yl)-6,7-dihydro-1H-pyrrolo[3,2-c]pyridin-4(5H)-one] were, in that order, 143 nM, 0.992 nM and 0.272 nM.
Regarding `Cc1nc2cccc(-c3[nH]c4c(c3Br)C(=O)NCC4)c2nc1NC(C)(C)C` [Example 349, 3-bromo-2-(3-(tert-butylamino)-2-methyl-5-quinoxalinyl)-1,5,6,7-tetrahydro-4H-pyrrolo[3,2-c]pyridin-4-one], the IC50 came to 1000 nM with KMS-12-BM cell lines (setting [2]), 0.625 nM on Pim-1 (setting [3]) and 0.874 nM at Pim-2.
With `Cc1nc2ccc(F)c(-c3cc4c([nH]3)[C@@H](C)NC4=O)c2nc1NC1CC1` [Example 284, (R)-2-(3-(cyclopropylamino)-6-fluoro-2-methylquinoxalin-5-yl)-6-methyl-5,6-dihydropyrrolo[3,4-b]pyrrol-4(1H)-one], the figures for the IC50 in the assay with KMS-12-BM cell lines (setting [2]), at Pim-1 (setting [3]) and on Pim-2 were 18.6 nM, 0.0282 nM and 0.0378 nM, respectively.
In the case of `CC(C)(C)Nc1nc2c(-c3cc4c([nH]3)CCNC4=O)cccc2nc1/C=N/O` [Example 308, (E)-3-(tert-butylamino)-5-(4-oxo-4,5,6,7-tetrahydro-1H-pyrrolo[3,2-c]pyridin-2-yl)quinoxaline-2-carbaldehyde oxime], the IC50 is 177 nM in the assay with KMS-12-BM cell lines (setting [2]), 1.05 nM at Pim-1 (setting [3]) and 1.27 nM at Pim-2.
For the compound `Cc1nc2cccc(-c3cc4c([nH]3)C3(CC3)NC4=O)c2nc1NC1CC1` [Example 325, 2′-(3-(cyclopropylamino)-2-methyl-5-quinoxalinyl)-1′H-spiro[cyclopropane-1,6′-pyrrolo[3,4-b]pyrrol]-4′(5′H)-one], the IC50 was found to be 68.8 nM with KMS-12-BM cell lines (KMS-12-BM), 0.293 nM on Pim-1 and 0.242 nM on Pim-2.
As for `Cc1nc2cccc(-c3cc4c([nH]3)[C@@H](CO)NC4=O)c2nc1NC1(C)CC1` [Example 361, (S)-6-(hydroxymethyl)-2-(2-methyl-3-((1-methylcyclopropyl)amino)quinoxalin-5-yl)-5,6-dihydropyrrolo[3,4-b]pyrrol-4 (1H)-one], the half-inhibitory concentration (IC50) with KMS-12-BM cell lines (setting [2]) was 67.1 nM; on Pim-1 (setting [3]) it was 0.414 nM; at Pim-2, 0.53 nM.
